This is an account of results in ChEMBL document CHEMBL3399966, “Isosteric replacements of the carboxylic acid of drug candidate VX-787: Effect of charge on antiviral potency and kinase activity of azaindole-based influenza PB2 inhibitors” (Bioorg Med Chem Lett, 2015).

Where only a bound is given, the exact number is not on record here.

In general, Ki refers to a measure of affinity in units of concentration, obtained from inhibition or displacement. The low end stands for tighter binding, the high end for weaker binding. A word on the EC50: it is the concentration that produces a half-maximal response. What is called EC99 is the concentration needed for an effect of 99%. One may read the IC50 as the point on the concentration scale where inhibition reaches its midpoint.

The target of assay [1] is T1, Interleukin-1 receptor-associated kinase 4 (Homo sapiens, UniProt Q9NWZ3).
T1 sequence (Q9NWZ3 whole entry): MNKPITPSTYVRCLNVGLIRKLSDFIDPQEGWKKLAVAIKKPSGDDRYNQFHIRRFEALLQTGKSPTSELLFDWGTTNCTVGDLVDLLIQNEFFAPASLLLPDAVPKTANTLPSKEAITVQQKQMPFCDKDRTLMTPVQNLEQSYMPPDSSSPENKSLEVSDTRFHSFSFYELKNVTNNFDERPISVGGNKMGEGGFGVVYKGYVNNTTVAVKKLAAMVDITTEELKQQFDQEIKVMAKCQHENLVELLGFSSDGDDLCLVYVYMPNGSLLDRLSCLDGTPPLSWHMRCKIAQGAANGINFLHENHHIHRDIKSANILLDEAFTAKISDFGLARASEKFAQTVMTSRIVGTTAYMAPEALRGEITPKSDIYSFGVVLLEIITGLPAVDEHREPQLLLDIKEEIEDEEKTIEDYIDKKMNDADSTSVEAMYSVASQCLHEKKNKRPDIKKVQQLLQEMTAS
The experiment in a line: Inhibition of IRAK4 (unknown origin).

The subject of assay [2] is Influenza A virus. The assay is described as follows: Antiviral activity against influenza A virus A/PR/8/34 strain incubated with MDCK cells assessed as reduction of viral RNA level equal to 1% of control level after 72 hrs by branched DNA assay. It is filed as functional, organism-based. As to conditions: A/Puerto Rico/8/1934(H1N1).
For assay [3], the target named is T2, Phosphatidylinositol 4,5-bisphosphate 3-kinase catalytic subunit delta isoform (Homo sapiens, UniProt O00329).
T2 sequence (O00329 whole entry): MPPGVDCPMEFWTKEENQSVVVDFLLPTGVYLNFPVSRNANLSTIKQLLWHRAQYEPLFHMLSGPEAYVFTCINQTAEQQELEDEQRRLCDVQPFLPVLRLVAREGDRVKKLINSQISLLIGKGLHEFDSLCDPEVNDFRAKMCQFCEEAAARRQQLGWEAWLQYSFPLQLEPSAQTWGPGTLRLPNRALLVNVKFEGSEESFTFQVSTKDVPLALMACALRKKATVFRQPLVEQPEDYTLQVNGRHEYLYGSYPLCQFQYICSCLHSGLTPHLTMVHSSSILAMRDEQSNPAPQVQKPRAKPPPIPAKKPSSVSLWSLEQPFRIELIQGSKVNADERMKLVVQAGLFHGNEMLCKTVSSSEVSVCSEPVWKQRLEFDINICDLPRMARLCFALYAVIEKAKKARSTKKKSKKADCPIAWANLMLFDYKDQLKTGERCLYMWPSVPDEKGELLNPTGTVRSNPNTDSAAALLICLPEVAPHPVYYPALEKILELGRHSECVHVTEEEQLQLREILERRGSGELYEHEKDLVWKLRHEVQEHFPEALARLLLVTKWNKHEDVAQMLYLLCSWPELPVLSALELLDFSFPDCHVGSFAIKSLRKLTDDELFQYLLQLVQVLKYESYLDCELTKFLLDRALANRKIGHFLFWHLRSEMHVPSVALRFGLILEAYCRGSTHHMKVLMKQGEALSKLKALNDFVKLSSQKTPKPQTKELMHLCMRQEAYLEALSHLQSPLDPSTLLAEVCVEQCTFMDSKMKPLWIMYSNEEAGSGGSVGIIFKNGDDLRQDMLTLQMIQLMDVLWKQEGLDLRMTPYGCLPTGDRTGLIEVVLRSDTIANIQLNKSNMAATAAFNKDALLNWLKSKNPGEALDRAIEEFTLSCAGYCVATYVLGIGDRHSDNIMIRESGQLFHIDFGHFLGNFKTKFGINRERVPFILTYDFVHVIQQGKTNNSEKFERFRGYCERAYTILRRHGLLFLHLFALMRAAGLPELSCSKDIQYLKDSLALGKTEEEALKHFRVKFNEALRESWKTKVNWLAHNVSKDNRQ
The assay is described as follows: Inhibition of PI3Kdelta (unknown origin).

Assay [4] concerns the target Hepatocyte growth factor receptor (Homo sapiens, UniProt P08581). The assay is described as follows: Inhibition of MET (unknown origin).
Assay [5] addresses Glycogen synthase kinase-3 (Homo sapiens, UniProt P49840+P49841). The experiment in a line: Inhibition of GSK3 (unknown origin). Type of assay: protein assay.
The target of assay [6] is Tyrosine-protein kinase JAK2 (Homo sapiens, UniProt O60674). The experiment in a line: Inhibition of JAK2 (unknown origin).
Sequence of Tyrosine-protein kinase JAK2 (O60674 whole entry): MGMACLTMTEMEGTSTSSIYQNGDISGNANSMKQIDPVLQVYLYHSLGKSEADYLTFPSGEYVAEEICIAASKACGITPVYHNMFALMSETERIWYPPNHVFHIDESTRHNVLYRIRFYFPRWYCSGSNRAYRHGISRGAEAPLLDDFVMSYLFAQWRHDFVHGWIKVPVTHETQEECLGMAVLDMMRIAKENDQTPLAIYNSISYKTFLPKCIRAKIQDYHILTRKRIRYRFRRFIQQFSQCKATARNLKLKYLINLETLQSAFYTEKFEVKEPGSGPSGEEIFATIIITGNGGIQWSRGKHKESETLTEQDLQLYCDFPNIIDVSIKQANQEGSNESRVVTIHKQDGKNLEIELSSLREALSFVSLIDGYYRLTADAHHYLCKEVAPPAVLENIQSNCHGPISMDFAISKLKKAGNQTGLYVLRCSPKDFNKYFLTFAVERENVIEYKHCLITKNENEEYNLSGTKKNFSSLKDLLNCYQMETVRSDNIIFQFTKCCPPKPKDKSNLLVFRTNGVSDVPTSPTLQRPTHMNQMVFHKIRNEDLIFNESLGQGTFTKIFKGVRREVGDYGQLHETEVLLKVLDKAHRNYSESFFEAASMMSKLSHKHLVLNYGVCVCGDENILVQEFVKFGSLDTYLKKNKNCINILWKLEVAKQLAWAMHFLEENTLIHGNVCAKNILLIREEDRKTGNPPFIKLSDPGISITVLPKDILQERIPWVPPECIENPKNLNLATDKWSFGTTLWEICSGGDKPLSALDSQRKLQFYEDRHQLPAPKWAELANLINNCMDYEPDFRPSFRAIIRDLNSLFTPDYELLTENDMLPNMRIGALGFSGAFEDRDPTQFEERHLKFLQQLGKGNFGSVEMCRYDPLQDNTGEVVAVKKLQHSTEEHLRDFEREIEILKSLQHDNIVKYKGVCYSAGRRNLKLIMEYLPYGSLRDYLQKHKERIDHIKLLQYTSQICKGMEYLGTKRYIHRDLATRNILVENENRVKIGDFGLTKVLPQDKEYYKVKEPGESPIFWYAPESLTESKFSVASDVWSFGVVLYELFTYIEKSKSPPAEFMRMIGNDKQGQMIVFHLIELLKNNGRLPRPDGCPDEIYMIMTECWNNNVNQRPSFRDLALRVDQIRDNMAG
In assay [7] the target is T3, Receptor-type tyrosine-protein kinase FLT3 (Homo sapiens, UniProt P36888).
T3 sequence (P36888 whole entry): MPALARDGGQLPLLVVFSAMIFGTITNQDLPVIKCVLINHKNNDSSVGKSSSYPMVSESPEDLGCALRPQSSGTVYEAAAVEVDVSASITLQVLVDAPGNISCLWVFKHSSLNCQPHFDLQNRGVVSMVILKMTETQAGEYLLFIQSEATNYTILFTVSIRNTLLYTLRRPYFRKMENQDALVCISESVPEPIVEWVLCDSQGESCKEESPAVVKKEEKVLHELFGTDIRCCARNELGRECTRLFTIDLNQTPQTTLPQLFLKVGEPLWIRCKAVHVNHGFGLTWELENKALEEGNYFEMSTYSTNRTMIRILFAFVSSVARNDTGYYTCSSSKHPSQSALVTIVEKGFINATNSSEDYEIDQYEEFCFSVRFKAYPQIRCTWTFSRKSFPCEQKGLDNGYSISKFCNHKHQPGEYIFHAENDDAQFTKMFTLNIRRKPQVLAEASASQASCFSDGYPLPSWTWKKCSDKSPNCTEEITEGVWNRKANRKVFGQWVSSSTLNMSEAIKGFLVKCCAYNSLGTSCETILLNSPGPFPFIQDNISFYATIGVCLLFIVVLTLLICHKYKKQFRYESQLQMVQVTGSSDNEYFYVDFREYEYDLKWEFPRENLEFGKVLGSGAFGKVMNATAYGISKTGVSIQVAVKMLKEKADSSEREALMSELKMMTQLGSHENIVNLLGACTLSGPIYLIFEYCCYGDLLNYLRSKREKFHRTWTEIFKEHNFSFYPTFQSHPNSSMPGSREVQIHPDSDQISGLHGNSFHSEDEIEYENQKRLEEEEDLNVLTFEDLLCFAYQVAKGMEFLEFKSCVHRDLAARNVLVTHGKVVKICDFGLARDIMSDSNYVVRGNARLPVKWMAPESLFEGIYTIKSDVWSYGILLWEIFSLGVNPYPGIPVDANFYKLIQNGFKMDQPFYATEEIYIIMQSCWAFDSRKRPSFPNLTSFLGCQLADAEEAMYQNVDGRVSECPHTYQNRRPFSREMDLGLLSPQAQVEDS
The experiment in a line: Inhibition of FLT3 (unknown origin).

Assay [8] deals with Phosphatidylinositol 4,5-bisphosphate 3-kinase catalytic subunit alpha isoform (Homo sapiens, UniProt P42336). The experiment in a line: Inhibition of PI3Kalpha (unknown origin).
Sequence of Phosphatidylinositol 4,5-bisphosphate 3-kinase catalytic subunit alpha isoform (P42336 whole entry, canonical isoform): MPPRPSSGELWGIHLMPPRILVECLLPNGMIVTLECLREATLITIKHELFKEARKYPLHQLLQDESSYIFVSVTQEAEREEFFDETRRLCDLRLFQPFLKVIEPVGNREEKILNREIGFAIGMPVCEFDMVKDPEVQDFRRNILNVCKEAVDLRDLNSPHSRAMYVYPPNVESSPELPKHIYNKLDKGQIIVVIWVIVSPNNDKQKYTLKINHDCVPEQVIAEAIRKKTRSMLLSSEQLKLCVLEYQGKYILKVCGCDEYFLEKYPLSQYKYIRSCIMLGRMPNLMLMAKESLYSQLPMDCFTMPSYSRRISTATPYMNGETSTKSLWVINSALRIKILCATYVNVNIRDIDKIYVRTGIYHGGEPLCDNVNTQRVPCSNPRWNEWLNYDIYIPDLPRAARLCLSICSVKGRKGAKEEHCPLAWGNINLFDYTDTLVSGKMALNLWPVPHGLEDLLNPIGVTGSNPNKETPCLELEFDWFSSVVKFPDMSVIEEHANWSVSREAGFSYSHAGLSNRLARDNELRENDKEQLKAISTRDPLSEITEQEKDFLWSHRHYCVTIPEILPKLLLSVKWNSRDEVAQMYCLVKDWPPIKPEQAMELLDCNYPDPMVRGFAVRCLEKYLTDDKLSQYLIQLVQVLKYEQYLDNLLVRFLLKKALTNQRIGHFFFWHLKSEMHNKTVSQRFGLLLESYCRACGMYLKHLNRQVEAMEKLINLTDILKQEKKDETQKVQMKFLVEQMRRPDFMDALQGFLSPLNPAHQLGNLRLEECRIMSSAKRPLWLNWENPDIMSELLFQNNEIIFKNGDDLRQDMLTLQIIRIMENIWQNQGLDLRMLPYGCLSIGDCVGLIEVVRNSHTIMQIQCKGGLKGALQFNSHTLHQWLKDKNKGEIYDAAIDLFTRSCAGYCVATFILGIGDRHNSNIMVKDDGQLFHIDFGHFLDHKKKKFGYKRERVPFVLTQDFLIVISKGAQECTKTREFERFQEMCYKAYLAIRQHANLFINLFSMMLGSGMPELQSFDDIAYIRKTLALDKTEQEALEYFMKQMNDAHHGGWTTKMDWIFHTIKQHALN
The target in assay [9] is Vascular endothelial growth factor receptor 2 (Homo sapiens, UniProt P35968). The experiment in a line: Inhibition of KDR (unknown origin).
Sequence of Vascular endothelial growth factor receptor 2 (P35968 whole entry): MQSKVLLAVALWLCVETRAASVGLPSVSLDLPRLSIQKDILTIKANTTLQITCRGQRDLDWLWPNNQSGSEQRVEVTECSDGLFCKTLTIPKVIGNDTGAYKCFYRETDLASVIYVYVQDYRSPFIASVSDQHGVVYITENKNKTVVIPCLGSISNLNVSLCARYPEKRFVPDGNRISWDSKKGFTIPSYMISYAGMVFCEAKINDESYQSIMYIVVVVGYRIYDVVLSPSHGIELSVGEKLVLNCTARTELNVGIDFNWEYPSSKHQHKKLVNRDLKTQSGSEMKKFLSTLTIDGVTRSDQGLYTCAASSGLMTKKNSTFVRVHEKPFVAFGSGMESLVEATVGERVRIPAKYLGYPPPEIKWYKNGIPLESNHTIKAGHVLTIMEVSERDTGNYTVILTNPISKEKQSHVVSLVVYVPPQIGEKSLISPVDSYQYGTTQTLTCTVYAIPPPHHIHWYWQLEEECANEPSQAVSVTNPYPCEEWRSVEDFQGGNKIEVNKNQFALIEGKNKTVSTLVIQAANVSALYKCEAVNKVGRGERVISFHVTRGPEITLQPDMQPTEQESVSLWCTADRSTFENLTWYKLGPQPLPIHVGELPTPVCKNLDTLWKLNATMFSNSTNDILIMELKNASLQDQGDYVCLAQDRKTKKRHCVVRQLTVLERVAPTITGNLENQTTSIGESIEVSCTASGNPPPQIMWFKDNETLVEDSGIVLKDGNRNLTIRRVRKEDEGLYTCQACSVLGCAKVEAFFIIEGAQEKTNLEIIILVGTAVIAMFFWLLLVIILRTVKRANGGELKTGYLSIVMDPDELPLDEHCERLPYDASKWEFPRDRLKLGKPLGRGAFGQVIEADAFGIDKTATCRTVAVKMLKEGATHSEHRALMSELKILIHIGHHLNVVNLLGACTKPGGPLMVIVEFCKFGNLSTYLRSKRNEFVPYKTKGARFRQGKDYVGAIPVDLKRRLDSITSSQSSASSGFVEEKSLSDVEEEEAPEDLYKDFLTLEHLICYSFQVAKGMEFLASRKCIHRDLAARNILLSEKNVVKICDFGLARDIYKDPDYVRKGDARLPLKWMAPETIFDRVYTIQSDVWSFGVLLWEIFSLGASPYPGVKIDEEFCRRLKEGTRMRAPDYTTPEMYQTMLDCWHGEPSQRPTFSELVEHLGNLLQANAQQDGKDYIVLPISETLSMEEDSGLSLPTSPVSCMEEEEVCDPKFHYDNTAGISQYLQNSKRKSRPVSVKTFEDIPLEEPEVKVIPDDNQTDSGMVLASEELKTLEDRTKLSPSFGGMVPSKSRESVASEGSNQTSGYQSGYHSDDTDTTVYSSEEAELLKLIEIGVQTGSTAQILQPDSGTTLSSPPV
Assay [10] deals with Rho-associated protein kinase (Homo sapiens, UniProt O75116+Q13464). The experiment in a line: Inhibition of ROCK (unknown origin). Type of assay: protein-complex assay.
The subject of assay [11] is Influenza A virus. The assay is described as follows: Antiviral activity against Influenza A virus A/PR/8/34 strain incubated with MDCK cells assessed as cell protection after 72 hrs by phenotypic cell protection assay. Type of assay: functional, organism-based. As to conditions: A/Puerto Rico/8/1934(H1N1).
Assay [12] has as its target cAMP-dependent protein kinase catalytic subunit alpha (Homo sapiens, UniProt P17612). The experiment in a line: Inhibition of PKAa (unknown origin).
For assay [13], the target named is Serine/threonine-protein kinase PLK1 (Homo sapiens, UniProt P53350). The assay is described as follows: Inhibition of PLK (unknown origin).
The target in assay [14] is Tyrosine-protein kinase SYK (Homo sapiens, UniProt P43405). The assay is described as follows: Inhibition of SYK (unknown origin).
The target of assay [15] is Phosphatidylinositol 4,5-bisphosphate 3-kinase catalytic subunit gamma isoform (Homo sapiens, UniProt P48736). The experiment in a line: Inhibition of PI3Kgamma (unknown origin).
For assay [16], the target named is Mitogen-activated protein kinase 10 (Homo sapiens, UniProt P53779). The assay is described as follows: Inhibition of JNK3 (unknown origin).
Sequence of Mitogen-activated protein kinase 10 (P53779 whole entry, canonical isoform): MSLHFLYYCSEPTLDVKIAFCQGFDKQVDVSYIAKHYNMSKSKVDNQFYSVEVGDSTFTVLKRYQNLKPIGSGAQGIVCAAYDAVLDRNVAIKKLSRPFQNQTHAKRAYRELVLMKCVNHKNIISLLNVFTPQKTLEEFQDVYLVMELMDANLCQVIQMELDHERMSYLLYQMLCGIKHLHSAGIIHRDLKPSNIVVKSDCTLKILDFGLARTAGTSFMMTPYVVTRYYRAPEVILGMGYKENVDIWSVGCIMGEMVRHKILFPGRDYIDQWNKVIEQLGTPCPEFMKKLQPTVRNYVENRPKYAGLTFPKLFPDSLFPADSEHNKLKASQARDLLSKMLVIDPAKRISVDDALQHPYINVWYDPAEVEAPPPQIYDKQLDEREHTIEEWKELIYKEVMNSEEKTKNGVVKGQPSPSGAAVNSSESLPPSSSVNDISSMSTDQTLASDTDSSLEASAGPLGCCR
The target in assay [17] is Phosphatidylinositol 4,5-bisphosphate 3-kinase catalytic subunit beta isoform (Homo sapiens, UniProt P42338). The experiment in a line: Inhibition of PI3Kbeta (unknown origin).
The target in assay [18] is Cyclin-dependent kinase 2 (Homo sapiens, UniProt P24941). The experiment in a line: Inhibition of CDK2 (unknown origin).
Assay [19] deals with Proto-oncogene tyrosine-protein kinase Src (Homo sapiens, UniProt P12931). The experiment in a line: Inhibition of SRC (unknown origin).
Sequence of Proto-oncogene tyrosine-protein kinase Src (P12931 2-536 limits assumed): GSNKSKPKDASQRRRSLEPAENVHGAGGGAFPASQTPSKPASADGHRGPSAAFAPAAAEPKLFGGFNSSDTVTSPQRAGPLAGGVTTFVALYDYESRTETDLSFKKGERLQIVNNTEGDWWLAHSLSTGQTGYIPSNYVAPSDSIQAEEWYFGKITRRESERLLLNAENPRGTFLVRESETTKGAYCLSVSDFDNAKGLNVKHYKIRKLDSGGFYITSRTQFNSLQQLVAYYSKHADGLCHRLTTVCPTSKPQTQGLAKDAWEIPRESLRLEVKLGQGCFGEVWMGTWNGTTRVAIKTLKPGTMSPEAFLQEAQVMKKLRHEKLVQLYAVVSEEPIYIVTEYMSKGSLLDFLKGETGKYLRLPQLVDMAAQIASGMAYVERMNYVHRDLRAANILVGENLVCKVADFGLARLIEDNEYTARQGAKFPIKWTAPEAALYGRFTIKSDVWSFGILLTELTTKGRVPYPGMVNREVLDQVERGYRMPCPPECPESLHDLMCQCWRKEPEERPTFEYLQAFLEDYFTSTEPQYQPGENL

Take `O=P(O)(O)CC[C@H]1C2CCC(CC2)[C@@H]1Nc1nc(-c2c[nH]c3ncc(F)cc23)ncc1F` (mixture of isomers): the Ki in assay [1] was greater than 4000 nM; in assay [3], 3100 nM; in assay [4], greater than 4000 nM; in assay [5], 120 nM; in assay [6] it was 620 nM; in assay [7], greater than 4000 nM. In addition, the Ki in [8] is 850 nM; in assay [9], greater than 4000 nM; in [10] it was 250 nM; in assay [12], greater than 4000 nM; in [13] it was 320 nM; in assay [14], greater than 4000 nM. The Ki is 400 nM in assay [15]; greater than 4000 nM in assay [16]; greater than 4000 nM in assay [17]; greater than 4000 nM in assay [18]; greater than 4000 nM in assay [19]. The EC50 with Influenza A virus [2] is 330 nM. In addition, the EC99 in the assay with Influenza A virus [2] is 2.1 µM. Moreover, the IC50 with Influenza A virus [11] came to 200 nM.

Regarding `NS(=O)(=O)[C@H]1C2CCC(CC2)[C@@H]1Nc1nc(-c2c[nH]c3ncc(F)cc23)ncc1F` (mixture of isomers), the Ki in assay [1] was greater than 4000 nM; in assay [3], 1900 nM; in assay [4], greater than 4000 nM; in assay [5], 85 nM; in assay [6], 840 nM; in [7], 1200 nM. For the same compound, the Ki in assay [8] is greater than 4000 nM; in assay [9], 1900 nM; in [10], 980 nM; in [12], 490 nM; in assay [13], 2100 nM; in assay [14] it was greater than 4000 nM. Also, the Ki is 1100 nM in [15]; greater than 4000 nM in assay [16]; greater than 4000 nM in assay [17]; greater than 4000 nM in assay [18]; 3100 nM in assay [19]. In addition, in the assay on Influenza A virus [2], the EC50 was 6 nM. Besides, in the assay with Influenza A virus [2], the EC99 came to 0.064 µM. In addition, in the assay on Influenza A virus [11], the IC50 worked out at 6 nM.

With `Fc1cnc2[nH]cc(-c3ncc(F)c(N[C@H]4C5CCC(CC5)[C@@H]4c4nnn[nH]4)n3)c2c1` (mixture of isomers), the Ki in assay [1], in [3], in assay [4], in assay [5], in [6] and in [7] was greater than 4000 nM throughout. Further, the Ki in [8] is 1800 nM; in assay [9], greater than 4000 nM; in assay [10] it was greater than 4000 nM; in assay [12], greater than 4000 nM; in [13], greater than 4000 nM; in assay [14], greater than 4000 nM. The Ki in assay [15] is 2900 nM; in assay [16], greater than 4000 nM; in assay [17] it was greater than 4000 nM; in assay [18] it was greater than 4000 nM; in [19], greater than 4000 nM. Further, the EC50 with Influenza A virus [2] worked out at 38 nM. Moreover, the 99% effect concentration (EC99) in the assay with Influenza A virus [2] stood at 0.18 µM. The IC50 in the assay with Influenza A virus [11] was 25 nM.

Turning to `Cc1noc([C@H]2C3CCC(CC3)[C@@H]2Nc2nc(-c3c[nH]c4ncc(F)cc34)ncc2F)n1` (mixture of isomers), the Ki was greater than 4000 nM in assay [1]; 2500 nM in assay [3]; greater than 4000 nM in [4]; 980 nM in assay [5]; greater than 4000 nM in assay [6]; 970 nM in assay [7]. Moreover, the Ki is greater than 4000 nM in assay [8]; greater than 4000 nM in assay [9]; greater than 4000 nM in assay [10]; 1100 nM in assay [12]; greater than 4000 nM in assay [13]; greater than 4000 nM in assay [14]. The Ki in assay [15] was 1400 nM; in assay [16], greater than 4000 nM; in assay [17], 2300 nM; in [18], greater than 4000 nM; in [19] it was 2400 nM. In addition, the EC50 with Influenza A virus [2] is 120 nM. Further, in the assay on Influenza A virus [2], the EC99 was found to be 1.2 µM. The IC50 in the assay with Influenza A virus [11] was found to be 210 nM.
